Measured values published in patent publication US9353096B2, “Substituted phenylcarbamate compounds” (Hoffmann-La Roche Inc., priority 2012, dated 2016).
Structures can show the parent of a compound that is named as a salt.

Each compound was assayed against hTRPA1 (Homo sapiens, UniProt O75762) (assay: Dose response calcium flux (FLIPR) assay, ChanTest hTRPA1-CHO stably transfected cell line, cinnamaldehyde agonist). Conditions: CHO-K1 Tet-On hTRPA1 cells, 100 uM cinnamaldehyde agonist, 30 min preincubation.
hTRPA1, sequence (O75762 whole entry): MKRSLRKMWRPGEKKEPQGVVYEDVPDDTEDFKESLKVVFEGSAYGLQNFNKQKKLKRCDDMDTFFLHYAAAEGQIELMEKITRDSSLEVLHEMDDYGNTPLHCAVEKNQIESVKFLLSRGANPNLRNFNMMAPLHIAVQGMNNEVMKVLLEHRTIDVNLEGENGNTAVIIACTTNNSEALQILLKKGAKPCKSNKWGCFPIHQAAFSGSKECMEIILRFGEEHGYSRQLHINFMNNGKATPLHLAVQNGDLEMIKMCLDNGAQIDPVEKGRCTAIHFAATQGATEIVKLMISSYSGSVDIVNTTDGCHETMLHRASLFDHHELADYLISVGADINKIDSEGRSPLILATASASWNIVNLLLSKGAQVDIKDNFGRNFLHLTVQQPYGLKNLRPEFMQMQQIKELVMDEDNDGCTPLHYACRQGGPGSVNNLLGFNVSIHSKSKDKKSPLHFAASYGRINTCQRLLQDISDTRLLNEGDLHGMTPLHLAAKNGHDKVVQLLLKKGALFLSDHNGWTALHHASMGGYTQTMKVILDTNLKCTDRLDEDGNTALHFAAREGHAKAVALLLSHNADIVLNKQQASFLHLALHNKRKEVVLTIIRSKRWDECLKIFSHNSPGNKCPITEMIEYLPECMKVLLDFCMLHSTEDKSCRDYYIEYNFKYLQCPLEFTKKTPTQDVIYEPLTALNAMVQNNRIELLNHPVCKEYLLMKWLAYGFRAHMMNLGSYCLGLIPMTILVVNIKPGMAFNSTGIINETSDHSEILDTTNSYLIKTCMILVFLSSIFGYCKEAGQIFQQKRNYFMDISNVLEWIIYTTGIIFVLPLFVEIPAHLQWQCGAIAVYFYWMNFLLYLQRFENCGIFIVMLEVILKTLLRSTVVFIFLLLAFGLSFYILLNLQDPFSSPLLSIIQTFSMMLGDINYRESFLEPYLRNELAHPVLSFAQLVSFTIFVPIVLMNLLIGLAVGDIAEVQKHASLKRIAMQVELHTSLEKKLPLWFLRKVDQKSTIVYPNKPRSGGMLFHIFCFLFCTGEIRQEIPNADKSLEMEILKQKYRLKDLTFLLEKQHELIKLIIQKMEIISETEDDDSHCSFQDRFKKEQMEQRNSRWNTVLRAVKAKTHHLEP
Assay type: cell-based
Method: Dose Response Assay:ChanTest hTRPA1-CHO Stably Transfected Cell Line
CHO-K1 Tet-On_HOMSA_TRPA1_Clone_20
Growth Media for CHO-K1 Tet-On_HOMSA_TRPA1_Clone_20 • Ham's F-12 with 10% tetracycline-free FBS • 1× penicillin-streptomycin • 1× glutamax • 0.01 mg/ml Blasticidin • 0.40 mg/ml Zeocin • The cell line doubling rate was ˜15 h. […] Experiments were run at 24 h post induction.
Plating Conditions CHOK1/TRPA1 Cells: • Harvested cells with 0.025% trypsin/EDTA. • Resuspended cells in growth media without selection antibiotics. • Measured cell density and diluted to 2.4×10^5 cells/ml in media containing 1 ug/ml Doxycycline Plate 25 ul/well into 384 well black/clear tissue culture-treated plates. • Incubated overnight at 37° C.
Replacement Buffer: Hank's Balanced Salt Solution, 20 mM HEPES along with 0.005% BSA and 2× Probenecid
Dye Loading Buffer: Cal-3 NW Calcium dye was prepared by dissolving the contents of one vial with […] Hank's Balanced Salt Solution containing 20 mM HEPES.
AP-18, stock 10 mM, prepare 3.5× compound dilution in a Compound Buffer (HBSS/20 mM HEPES/0.005% BSA)—final concentration 10 uM.
Preparation of Cinnamaldehyde (Agonist Addition): • FW=132.16 • Specific gravity=1.046 gm/cc • 1.32 gm/1.046 gm/cc=1.26 ml of stock • Add 1.74 ml DMSO=3.3 M stock • Working solution 4.5× (final 100 uM in Compound Buffer: HBSS/20 mM HEPES/0.005% BSA)
Compounds dilutions were prepared from 5 or 10 mM stock (100% DMSO): • Adjustments of volumes and concentrations were made at time of titration to reflect desired final assay concentrations. • Compounds were tested at either 20 μM three folds dilution 11 steps out or 30 μM two folds dilution 11 steps out. • 3 μl of diluted compound were transferred into Weidmann 384-well plate in duplicates side-by-side. • Compound plates were resuspended with 100 ul of HBSS/20 mM HEPES/0.005% BSA buffer (Compound Buffer): • column 1A-H: buffer/DMSO (bk) • column 2A-H: AP-18 (control antagonist for CHOK1 TRPA1 cells) • column 1I-P: ATP (control for CHOK1 teton cells) • column 2I-P: 2APB (control antagonist for CHOK1/TRPM8 cells).
Growth media was removed from the cell plates (20 ul) and 20 μl of the Replacement Buffer was added followed by addition of 25 μl of diluted dye. All three steps were performed using a Plate Washer BioTek 407. The plates were then incubated for 30′ at RT.
After incubation, both the cell and compound plates were brought to the FLIPR and 20 μl of the diluted compounds/antagonist/bk were transferred to the cell plates by the FLIPR. Plates were then incubated for 30′ at room temperature. After 30′ incubation, plates were returned to the FLIPR and 20 μl of 4.5× Cinnamaldehyde was added to the cell plates. During the compound addition as well as agonist addition, fluorescence readings were taken simultaneously from all 384 wells of the cell plate every 1.5 seconds. Five readings were taken to establish a stable baseline, then 20 μl of sample was rapidly (30 ul/sec) and simultaneously added to each well of the cell plate. The fluorescence was continuously monitored before, during and after sample/agonist addition for a total elapsed time of 100 seconds (compound addition) and 120 seconds (agonist addition). Responses (increase in peak fluorescence) in each well following agonist addition was determined. The initial fluorescence reading from each well, prior to ligand stimulation, was used a zero baseline value for the data from that well.

| Structure (SMILES) | IC50 [nM] |
| --- | --- |
| O=C(Nc1ccc(Cl)c(F)c1)O[C@@H](CN1CCO[C@@H](c2ccc(C(F)(F)F)nc2)C1)C(F)(F)F (single isomer, unassigned) [Example 23, hydrochloride] | 781 |
| O=C(Nc1ccc(Cl)c(F)c1)O[C@@H](CN1CCO[C@H](c2ccnc(C(F)(F)F)n2)C1)C(F)(F)F [Example 24, (4-Chloro-3-fluorophenyl)-carbamic acid (S)-2,2,2-trifluoro-1-[(S)-2-(2-trifluoromethylpyrimidin-4-yl)-morpholin-4-ylmethyl]-ethyl ester hydrochloride] | 71.1 |
| O=C(Nc1ccc(Cl)cc1)O[C@@H](CN1CCS(=O)(=O)[C@H](c2cccc(C(F)(F)F)c2)C1)C(F)(F)F [Example 18, (4-Chlorophenyl)-carbamic acid (S)-1-[(R)-1,1-dioxo-2-(3-trifluoromethylphenyl)-1λ^6-thiomorpholin-4-ylmethyl]-2,2,2-trifluoroethyl ester] | 42.5 |
| COc1cccc([C@H]2CN(C[C@H](OC(=O)Nc3ccc(Cl)cc3)C(F)(F)F)CCO2)c1 (single isomer, unassigned) [Example 15] | 803 |
| O=C(Nc1ccc(Cl)cc1)O[C@@H](CN1CCO[C@@H](Cc2ccccc2)C1)C(F)(F)F (single isomer, unassigned) [Example 10, hydrochloride] | 3580 |
| O=C(Nc1ccc(Cl)c(F)c1)O[C@@H](CN1CCS(=O)(=O)[C@H](c2cccc(C(F)(F)F)c2)C1)C(F)(F)F [Example 20, (4-Chloro-3-fluorophenyl)-carbamic acid (S)-1-[(R)-1,1-dioxo-2-(3-trifluoromethylphenyl)-1λ^6-thiomorpholin-4-ylmethyl]-2,2,2-trifluoroethyl ester] | 74.3 |
| O=C(Nc1ccc(Cl)c(F)c1)O[C@@H](CN1CCO[C@H](c2ccc(Cl)c(F)c2)C1)C(F)(F)F [Example 4, (4-Chloro-3-fluorophenyl)-carbamic acid (S)-1-[(R)-2-(4-chloro-3-fluorophenyl)-morpholin-4-ylmethyl]-2,2,2-trifluoroethyl ester hydrochloride] | 42.4 |
| O=C(Nc1ccc(Cl)c(F)c1)O[C@@H](CN1CCO[C@@H](c2cccc(Cl)c2)C1)C(F)(F)F [Example 8, (4-Chloro-3-fluorophenyl)-carbamic acid (S)-1-[(S)-2-(3-chlorophenyl)-morpholin-4-ylmethyl]-2,2,2-trifluoroethyl ester hydrochloride] | 597 |
| O=C(Nc1ccc(Cl)c(F)c1)O[C@@H](CN1CCO[C@H](c2cccc(Cl)c2)C1)C(F)(F)F [Example 6, (4-Chloro-3-fluorophenyl)-carbamic acid (S)-1-[(R)-2-(3-chlorophenyl)-morpholin-4-ylmethyl]-2,2,2-trifluoroethyl ester hydrochloride] | 50.5 |
| O=C(Nc1ccc(Cl)cc1)O[C@@H](CN1CCO[C@H](c2ccc(F)c(C(F)(F)F)c2)C1)C(F)(F)F [Example 1, (4-Chlorophenyl)-carbamic acid (S)-2,2,2-trifluoro-1-[(R)-2-(4-fluoro-3-trifluoromethylphenyl)-morpholin-4-ylmethyl]-ethyl ester hydrochloride] | 4.91 |

Further lines, results first:

| IC50 [nM] | Structure (SMILES) |
| --- | --- |
| 103 | CC(C)c1nccc([C@@H]2CN(C[C@H](OC(=O)Nc3ccc(Cl)c(F)c3)C(F)(F)F)CCO2)n1 [Example 25, (4-Chloro-3-fluorophenyl)-carbamic acid (S)-2,2,2-trifluoro-1-[(S)-2-(2-isopropylpyrimidin-4-yl)-morpholin-4-ylmethyl]-ethyl ester hydrochloride] |
| 83.4 | O=C(Nc1ccc(Cl)cc1)O[C@@H](CN1CCOC(c2ccc(F)cc2)C1)C(F)(F)F (stereo partly drawn) [Example 42, (4-Chlorophenyl)carbamic acid (S)-2,2,2-trifluoro-1-[2-(4-fluorophenyl)-morpholin-4-ylmethyl]-ethyl ester hydrochloride] |
| 130 | O=C(Nc1ccc(Cl)cc1)O[C@@H](CN1CCOC(c2cccc(F)c2)C1)C(F)(F)F (stereo partly drawn) [Example 47, (4-Chlorophenyl)-carbamic acid (S)-2,2,2-trifluoro-1-[2-(3-fluorophenyl)-morpholin-4-ylmethyl]-ethyl ester hydrochloride] |
| 92.2 | O=C(Nc1ccc(Cl)c(F)c1)O[C@@H](CN1CCO[C@H](c2ccc(F)cc2)C1)C(F)(F)F [Example 36, (4-Chloro-3-fluorophenyl)carbamic acid (S)-1-[(R)-2-(4-fluorophenyl)-morpholin-4-ylmethyl]-2,2,2-trifluoroethyl ester hydrochloride] |
| 34.6 | O=C(Nc1ccc(Cl)c(F)c1)O[C@@H](CN1CCO[C@H](c2ccc(C(F)(F)F)cc2)C1)C(F)(F)F [Example 31, (4-Chloro-3-fluorophenyl)carbamic acid (S)-2,2,2-trifluoro-1-[(R)-2-(4-trifluoromethylphenyl)-morpholin-4-ylmethyl]-ethyl ester hydrochloride] |
| 115 | O=C(Nc1ccc(Cl)cc1)O[C@@H](CN1CCO[C@H](Cc2cccs2)C1)C(F)(F)F [Example 49, (4-Chlorophenyl)-carbamic acid (S)-2,2,2-trifluoro-1-((R)-2-thiophen-2-ylmethyl-morpholin-4-ylmethyl)-ethyl ester hydrochloride] |
| 16.9 | O=C(Nc1ccc(Cl)c(F)c1)O[C@@H](CN1CCO[C@H](c2cc(Cl)cc(Cl)c2)C1)C(F)(F)F [Example 46, (4-Chloro-3-fluorophenyl)carbamic acid (S)-1-[(R)-2-(3,5-dichlorophenyl)-morpholin-4-ylmethyl]-2,2,2-trifluoroethyl ester hydrochloride] |
| 4530 | CC(=O)N1CCN(C[C@H](OC(=O)Nc2ccc(Cl)cc2)C(F)(F)F)CC1c1ccccc1 (stereo partly drawn) [Example 28, (4-Chlorophenyl)-carbamic acid (S)-1-(4-acetyl-3-phenylpiperazin-1-ylmethyl)-2,2,2-trifluoroethyl ester hydrochloride] |
| 78 | O=C(Nc1ccc(Cl)nc1)O[C@@H](CN1CCOC(c2cccc(C(F)(F)F)c2)C1)C(F)(F)F (stereo partly drawn) [Example 38, (6-Chloropyridin-3-yl)carbamic acid (S)-2,2,2-trifluoro-1-[2-3-trifluoromethylphenyl]-morpholin-4-ylmethyl]-ethyl ester hydrochloride] |
| 10.3 | O=C(Nc1ccc(Cl)cc1)O[C@@H](CN1CCOC(c2cc(Cl)cc(Cl)c2)C1)C(F)(F)F (stereo partly drawn) [Example 44, (4-Chlorophenyl)-carbamic acid (S)-2,2,2-trifluoro-1-[2-(3,5-dichlorophenyl)-morpholin-4-ylmethyl]-ethyl ester hydrochloride] |
| 451 | O=C(Nc1ccc(Cl)c(F)c1)O[C@@H](CN1CCO[C@@H](c2ccc(C(F)(F)F)cc2)C1)C(F)(F)F [Example 32, (4-Chloro-3-fluorophenyl)-carbamic acid (S)-2,2,2-trifluoro-1-[(S)-2-(4-trifluoromethylphenyl)-morpholin-4-ylmethyl]-ethyl ester hydrochloride] |
| 3060 | O=C(C[C@@H](CN1CCO[C@@H](c2cccc(C(F)(F)F)c2)C1)C(F)(F)F)Nc1ccc(Cl)c(F)c1 [Example 40, (S)—N-(4-chloro-3-fluorophenyl)-4,4,4-trifluoro-3-[(S)-2-(3-trifluoromethylphenyl)-morpholin-4-ylmethyl]-butyramide] |
| 196 | O=C(Nc1ccc(Cl)c(F)c1)O[C@@H](CN1CCO[C@@H](c2ccc(F)c(F)c2)C1)C(F)(F)F (single isomer, unassigned) [Example 35, hydrochloride] |
| 244 | COc1ccc(C[C@@H]2CN(C[C@H](OC(=O)Nc3ccc(Cl)cc3)C(F)(F)F)CCO2)cn1 [Example 50, (4-Chloro-phenyl)-carbamic acid (S)-2,2,2-trifluoro-1-[(R)-2-(6-methoxy-pyridin-3-ylmethyl)-morpholin-4-ylmethyl]ethyl ester] |
